# In BindingDB's records for doi:10.1016/s0960-894x(03)00020-9 (Seoul National University, 2003):
# Molecular target: Isoleucine--tRNA ligase (Escherichia coli) (UniProt P00956)
# Assay: Inhibitory activity against Escherichia coli Isoleucyl-tRNA synthetase was determined
# Isoleucine--tRNA ligase (Escherichia coli), sequence (P00956 whole entry, looked up): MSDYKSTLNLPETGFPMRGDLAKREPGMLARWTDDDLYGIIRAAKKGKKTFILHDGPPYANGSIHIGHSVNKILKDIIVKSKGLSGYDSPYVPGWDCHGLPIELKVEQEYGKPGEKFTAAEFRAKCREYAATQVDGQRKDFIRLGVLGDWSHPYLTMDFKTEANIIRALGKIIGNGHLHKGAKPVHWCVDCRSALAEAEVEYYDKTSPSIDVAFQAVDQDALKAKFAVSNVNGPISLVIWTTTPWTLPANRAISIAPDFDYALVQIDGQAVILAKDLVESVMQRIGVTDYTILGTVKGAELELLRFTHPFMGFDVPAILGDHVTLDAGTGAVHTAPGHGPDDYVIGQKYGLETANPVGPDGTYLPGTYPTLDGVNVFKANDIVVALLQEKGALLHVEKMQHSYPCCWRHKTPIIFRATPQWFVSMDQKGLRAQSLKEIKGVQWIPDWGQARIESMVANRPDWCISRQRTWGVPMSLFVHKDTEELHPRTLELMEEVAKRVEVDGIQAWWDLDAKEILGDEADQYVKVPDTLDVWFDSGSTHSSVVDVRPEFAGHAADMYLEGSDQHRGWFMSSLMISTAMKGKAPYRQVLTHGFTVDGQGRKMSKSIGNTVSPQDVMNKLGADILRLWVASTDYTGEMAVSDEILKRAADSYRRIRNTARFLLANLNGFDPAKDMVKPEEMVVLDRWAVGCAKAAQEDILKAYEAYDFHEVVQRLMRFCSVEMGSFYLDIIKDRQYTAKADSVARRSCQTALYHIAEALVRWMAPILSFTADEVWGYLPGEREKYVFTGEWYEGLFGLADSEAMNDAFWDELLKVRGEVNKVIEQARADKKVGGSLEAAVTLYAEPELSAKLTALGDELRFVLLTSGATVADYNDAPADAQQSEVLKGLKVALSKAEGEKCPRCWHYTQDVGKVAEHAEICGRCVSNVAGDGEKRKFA
row,IC50,Structure (SMILES)
1,22.2 µM,CC[C@H](C)[C@H](N)C(=O)NS(=O)(=O)OC[C@H]1OC(n2cnc3c(NC)nc(I)nc32)[C@H](O)[C@@H]1O (stereo partly specified)
2,132 µM,CC[C@H](C)[C@H](N)C(=O)NS(=O)(=O)N(O)C[C@H]1OC(n2cnc3c(N)ncnc32)[C@H](O)[C@@H]1O (stereo partly specified)
3,0.039 µM,C#Cc1nc(N)c2ncn(C3O[C@H](COS(=O)(=O)NC(=O)[C@@H](N)[C@@H](C)CC)[C@@H](O)[C@H]3O)c2n1 (stereo partly specified)
4,5.5 µM,CC[C@H](C)[C@H](N)C(=O)NS(=O)(=O)OC[C@H]1OC(n2cnc3c(N)nc(Cl)nc32)[C@H](O)[C@@H]1O (stereo partly specified)
5,0.014 µM,CC[C@H](C)[C@H](N)C(=O)NS(=O)(=O)OC[C@H]1OC(n2cnc3c(N)nc(I)nc32)[C@H](O)[C@@H]1O (stereo partly specified)
6,12.8 µM,CC[C@H](C)[C@H](N)C(=O)NS(=O)(=O)NOC[C@H]1OC(n2cnc3c(N)ncnc32)[C@H](O)[C@@H]1O (stereo partly specified)
7,1.1 µM,CCCCC#Cc1nc(N)c2ncn(C3O[C@H](COS(=O)(=O)NC(=O)[C@@H](N)[C@@H](C)CC)[C@@H](O)[C@H]3O)c2n1 (stereo partly specified)

# Molecular target: Methionine--tRNA ligase (Escherichia coli) (UniProt P00959)
# Assay: Inhibitory activity against Escherichia coli Methionyl-tRNA synthetase was determined
# Methionine--tRNA ligase (Escherichia coli), sequence (P00959 whole entry, looked up): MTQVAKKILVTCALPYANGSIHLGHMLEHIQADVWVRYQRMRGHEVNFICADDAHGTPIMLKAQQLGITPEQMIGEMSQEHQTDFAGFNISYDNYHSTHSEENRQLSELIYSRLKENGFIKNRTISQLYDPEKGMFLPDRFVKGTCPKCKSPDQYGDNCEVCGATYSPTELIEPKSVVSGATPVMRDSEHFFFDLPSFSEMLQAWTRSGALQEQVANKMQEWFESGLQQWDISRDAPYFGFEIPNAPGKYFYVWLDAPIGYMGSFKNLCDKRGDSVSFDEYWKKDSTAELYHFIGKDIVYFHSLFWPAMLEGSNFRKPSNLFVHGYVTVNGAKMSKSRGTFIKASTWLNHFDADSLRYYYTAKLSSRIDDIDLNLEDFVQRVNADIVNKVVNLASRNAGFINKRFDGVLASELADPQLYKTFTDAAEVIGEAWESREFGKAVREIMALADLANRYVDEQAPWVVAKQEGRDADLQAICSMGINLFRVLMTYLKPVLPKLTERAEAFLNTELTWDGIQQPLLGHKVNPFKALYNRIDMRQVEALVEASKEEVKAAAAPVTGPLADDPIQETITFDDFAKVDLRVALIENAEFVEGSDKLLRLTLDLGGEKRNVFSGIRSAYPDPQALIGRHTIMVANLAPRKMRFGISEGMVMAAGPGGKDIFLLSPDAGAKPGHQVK
row,IC50,Structure (SMILES)
1,1.9 µM,CCCCC#Cc1nc(N)c2ncn(C3O[C@H](COS(=O)(=O)NC(=O)[C@@H](N)CCSC)[C@@H](O)[C@H]3O)c2n1 (stereo partly specified)
2,19.7 µM,CSCC[C@H](N)C(=O)NS(=O)(=O)NOC[C@H]1OC(n2cnc3c(N)ncnc32)[C@H](O)[C@@H]1O (stereo partly specified)
3,1.1 µM,C#Cc1nc(N)c2ncn(C3O[C@H](COS(=O)(=O)NC(=O)[C@@H](N)CCSC)[C@@H](O)[C@H]3O)c2n1 (stereo partly specified)
4,1.2 µM,CSCC[C@H](N)C(=O)NS(=O)(=O)OC[C@H]1OC(n2cnc3c(N)nc(I)nc32)[C@H](O)[C@@H]1O (stereo partly specified)
5,191 µM,CNc1nc(I)nc2c1ncn2C1O[C@H](COS(=O)(=O)NC(=O)[C@@H](N)CCSC)[C@@H](O)[C@H]1O (stereo partly specified)
6,106 µM,CSCC[C@H](N)C(=O)NS(=O)(=O)N(O)C[C@H]1OC(n2cnc3c(N)ncnc32)[C@H](O)[C@@H]1O (stereo partly specified)
7,7.4 µM,CSCC[C@H](N)C(=O)NS(=O)(=O)OC[C@H]1OC(n2cnc3c(N)nc(Cl)nc32)[C@H](O)[C@@H]1O (stereo partly specified)

# Molecular target: Methionine--tRNA ligase (Escherichia coli) (UniProt P00959)
# Assay: as above
# Remark: another data set of the same source
row,IC50,Structure (SMILES)
1,0.007 µM,CSCC[C@H](N)C(=O)NS(=O)(=O)OC[C@H]1O[C@@H](n2cnc3c(N)ncnc32)[C@H](O)[C@@H]1O

# Molecular target: Isoleucine--tRNA ligase (Escherichia coli) (UniProt P00956)
# Assay: Inhibitory activity against Escherichia coli Isoleucyl-tRNA synthetase was determined
# Remark: another data set of the same source
row,IC50,Structure (SMILES)
1,0.098 µM,CC[C@H](C)[C@H](N)C(=O)NS(=O)(=O)OC[C@H]1O[C@@H](n2cnc3c(N)ncnc32)[C@H](O)[C@@H]1O
